Results taken from PubChem BioAssay (NCI).
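In this assay, cells in 96-well plates receive the compound at five concentrations for 48 hours. Endpoints are linearly interpolated between the surrounding concentrations. Abbreviation: GI50, concentration required for 50% inhibition of growth. TGI marks complete inhibition of growth.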

Experiments:
Experiment in all cases: DTP human tumour cell line panel, 48 h
TK-10 renal = system: TK-10 renal
CCRF-CEM leukemia = system: CCRF-CEM leukemia
SK-MEL-2 melanoma = system: SK-MEL-2 melanoma
MCF7 breast = system: MCF7 breast
U251 CNS = system: U251 CNS
COLO 205 colon = system: COLO 205 colon
SNB-75 CNS = system: SNB-75 CNS
HT29 colon = system: HT29 colon
EKVX NSCLC = system: EKVX NSCLC
SF-295 CNS = system: SF-295 CNS
NCI-H23 lung = system: NCI-H23 lung
A498 renal = system: A498 renal
SK-MEL-28 melanoma = system: SK-MEL-28 melanoma
HCC-2998 colon = system: HCC-2998 colon
SR leukemia = system: SR leukemia
LOX IMVI melanoma = system: LOX IMVI melanoma
OVCAR-3 ovarian = system: OVCAR-3 ovarian
NCI-H522 lung = system: NCI-H522 lung
UO-31 renal = system: UO-31 renal
HCT-116 colon = system: HCT-116 colon
UACC-62 melanoma = system: UACC-62 melanoma
MDA-MB-435 = system: MDA-MB-435
M14 melanoma = system: M14 melanoma
KM12 colon = system: KM12 colon
SK-MEL-5 melanoma = system: SK-MEL-5 melanoma
RXF 393 renal = system: RXF 393 renal
786-0 renal = system: 786-0 renal
OVCAR-5 ovarian = system: OVCAR-5 ovarian
OVCAR-8 ovarian = system: OVCAR-8 ovarian
IGROV1 ovarian = system: IGROV1 ovarian
NCI-H460 lung = system: NCI-H460 lung
NCI/ADR-RES ovarian = system: NCI/ADR-RES ovarian
BT-549 breast = system: BT-549 breast
OVCAR-4 ovarian = system: OVCAR-4 ovarian
SF-268 CNS = system: SF-268 CNS
MDA-MB-231 breast = system: MDA-MB-231 breast
CAKI-1 renal = system: CAKI-1 renal
A549 NSCLC = system: A549 NSCLC
SNB-19 CNS = system: SNB-19 CNS
SK-OV-3 ovarian = system: SK-OV-3 ovarian
T-47D breast = system: T-47D breast
MOLT-4 leukemia = system: MOLT-4 leukemia
HCT-15 colon = system: HCT-15 colon
MALME-3M melanoma = system: MALME-3M melanoma
SW-620 colon = system: SW-620 colon
HL-60(TB) leukemia = system: HL-60(TB) leukemia
UACC-257 melanoma = system: UACC-257 melanoma
NCI-H226 lung = system: NCI-H226 lung
PC-3 prostate = system: PC-3 prostate
RPMI-8226 leukemia = system: RPMI-8226 leukemia
ACHN renal = system: ACHN renal
HOP-62 NSCLC = system: HOP-62 NSCLC
DU-145 prostate = system: DU-145 prostate
SF-539 CNS = system: SF-539 CNS
K-562 leukemia = system: K-562 leukemia
HS 578T breast = system: HS 578T breast

Question: `O=C1c2cc3c(cc2-c2c1c1cc(Cl)c(Cl)cc1c(=O)n2CCCn1ccnc1)OCO3` was tested. Which GI50 (TK-10 renal) did it give?
Answer: 85 nM

Question: What about the TGI (TK-10 renal) of the same molecule?
Answer: > 100000 nM

Question: What about the GI50 (CCRF-CEM leukemia) of the same molecule?
Answer: < 10 nM

Question: And the TGI (CCRF-CEM leukemia)?
Answer: > 100000 nM

Question: What about the GI50 (SK-MEL-2 melanoma) of the same molecule?
Answer: 222 nM

Question: What about the TGI (SK-MEL-2 melanoma) of the same molecule?
Answer: 26700 nM

Question: And the GI50 (MCF7 breast)?
Answer: < 10 nM

Question: What about the TGI (MCF7 breast) of the same molecule?
Answer: 12300 nM

Question: And the GI50 (U251 CNS)?
Answer: < 10 nM

Question: And the TGI (U251 CNS)?
Answer: 11600 nM

Question: What about the GI50 (COLO 205 colon) of the same molecule?
Answer: < 10 nM

Question: What about the TGI (COLO 205 colon) of the same molecule?
Answer: > 100000 nM

Question: And the GI50 (SNB-75 CNS)?
Answer: < 10 nM

Question: And the TGI (SNB-75 CNS)?
Answer: 17100 nM

Question: And the GI50 (HT29 colon)?
Answer: < 10 nM

Question: And the TGI (HT29 colon)?
Answer: > 100000 nM

Question: What about the GI50 (EKVX NSCLC) of the same molecule?
Answer: 55.3 nM

Question: And the TGI (EKVX NSCLC)?
Answer: > 100000 nM

Question: What about the GI50 (SF-295 CNS) of the same molecule?
Answer: < 10 nM

Question: And the TGI (SF-295 CNS)?
Answer: 13.1 nM

Question: What about the GI50 (NCI-H23 lung) of the same molecule?
Answer: < 10 nM

Question: What about the TGI (NCI-H23 lung) of the same molecule?
Answer: 232 nM

Question: What about the GI50 (A498 renal) of the same molecule?
Answer: 10.7 nM

Question: And the TGI (A498 renal)?
Answer: 63.8 nM

Question: What about the GI50 (SK-MEL-28 melanoma) of the same molecule?
Answer: 66.5 nM

Question: What about the TGI (SK-MEL-28 melanoma) of the same molecule?
Answer: > 100000 nM

Question: What about the GI50 (HCC-2998 colon) of the same molecule?
Answer: 53.8 nM

Question: And the TGI (HCC-2998 colon)?
Answer: > 100000 nM

Question: And the GI50 (SR leukemia)?
Answer: < 10 nM

Question: What about the TGI (SR leukemia) of the same molecule?
Answer: 1670 nM

Question: And the GI50 (LOX IMVI melanoma)?
Answer: < 10 nM

Question: What about the TGI (LOX IMVI melanoma) of the same molecule?
Answer: 18.3 nM

Question: What about the GI50 (OVCAR-3 ovarian) of the same molecule?
Answer: 42.5 nM

Question: And the TGI (OVCAR-3 ovarian)?
Answer: 18800 nM

Question: And the GI50 (NCI-H522 lung)?
Answer: < 10 nM

Question: And the TGI (NCI-H522 lung)?
Answer: 835 nM

Question: What about the GI50 (UO-31 renal) of the same molecule?
Answer: < 10 nM

Question: And the TGI (UO-31 renal)?
Answer: > 100000 nM

Question: What about the GI50 (HCT-116 colon) of the same molecule?
Answer: < 10 nM

Question: And the TGI (HCT-116 colon)?
Answer: 17600 nM

Question: What about the GI50 (UACC-62 melanoma) of the same molecule?
Answer: < 10 nM

Question: And the TGI (UACC-62 melanoma)?
Answer: 11.7 nM

Question: What about the GI50 (MDA-MB-435) of the same molecule?
Answer: 16.2 nM

Question: And the TGI (MDA-MB-435)?
Answer: > 100000 nM

Question: And the GI50 (M14 melanoma)?
Answer: < 10 nM

Question: And the TGI (M14 melanoma)?
Answer: 11800 nM

Question: And the GI50 (KM12 colon)?
Answer: 24.4 nM

Question: What about the TGI (KM12 colon) of the same molecule?
Answer: 37100 nM

Question: And the GI50 (SK-MEL-5 melanoma)?
Answer: < 10 nM

Question: What about the TGI (SK-MEL-5 melanoma) of the same molecule?
Answer: 40.7 nM

Question: And the GI50 (RXF 393 renal)?
Answer: < 10 nM

Question: And the TGI (RXF 393 renal)?
Answer: 56.6 nM

Question: What about the GI50 (786-0 renal) of the same molecule?
Answer: < 10 nM

Question: And the TGI (786-0 renal)?
Answer: 11400 nM

Question: And the GI50 (OVCAR-5 ovarian)?
Answer: 23.9 nM

Question: What about the TGI (OVCAR-5 ovarian) of the same molecule?
Answer: > 100000 nM

Question: And the GI50 (OVCAR-8 ovarian)?
Answer: < 10 nM

Question: And the TGI (OVCAR-8 ovarian)?
Answer: > 100000 nM

Question: And the GI50 (IGROV1 ovarian)?
Answer: 29.5 nM

Question: What about the TGI (IGROV1 ovarian) of the same molecule?
Answer: > 100000 nM

Question: And the GI50 (NCI-H460 lung)?
Answer: < 10 nM

Question: What about the TGI (NCI-H460 lung) of the same molecule?
Answer: > 100000 nM

Question: And the GI50 (NCI/ADR-RES ovarian)?
Answer: < 10 nM

Question: And the TGI (NCI/ADR-RES ovarian)?
Answer: 11600 nM

Question: And the GI50 (BT-549 breast)?
Answer: 11.4 nM

Question: And the TGI (BT-549 breast)?
Answer: 28100 nM

Question: And the GI50 (OVCAR-4 ovarian)?
Answer: 49.5 nM

Question: And the TGI (OVCAR-4 ovarian)?
Answer: > 100000 nM

Question: And the GI50 (SF-268 CNS)?
Answer: < 10 nM

Question: And the TGI (SF-268 CNS)?
Answer: > 100000 nM

Question: What about the GI50 (MDA-MB-231 breast) of the same molecule?
Answer: 99.6 nM

Question: And the TGI (MDA-MB-231 breast)?
Answer: > 100000 nM

Question: What about the GI50 (CAKI-1 renal) of the same molecule?
Answer: < 10 nM

Question: And the TGI (CAKI-1 renal)?
Answer: > 100000 nM

Question: What about the GI50 (A549 NSCLC) of the same molecule?
Answer: < 10 nM

Question: What about the TGI (A549 NSCLC) of the same molecule?
Answer: > 100000 nM

Question: What about the GI50 (SNB-19 CNS) of the same molecule?
Answer: < 10 nM

Question: What about the TGI (SNB-19 CNS) of the same molecule?
Answer: > 100000 nM

Question: And the GI50 (SK-OV-3 ovarian)?
Answer: < 10 nM

Question: And the TGI (SK-OV-3 ovarian)?
Answer: 30.5 nM

Question: And the GI50 (T-47D breast)?
Answer: < 10 nM

Question: And the TGI (T-47D breast)?
Answer: 63.6 nM

Question: And the GI50 (MOLT-4 leukemia)?
Answer: < 10 nM

Question: What about the TGI (MOLT-4 leukemia) of the same molecule?
Answer: 10900 nM

Question: What about the GI50 (HCT-15 colon) of the same molecule?
Answer: 25.7 nM

Question: What about the TGI (HCT-15 colon) of the same molecule?
Answer: > 100000 nM

Question: What about the GI50 (MALME-3M melanoma) of the same molecule?
Answer: 23.2 nM

Question: What about the TGI (MALME-3M melanoma) of the same molecule?
Answer: 17000 nM

Question: And the GI50 (SW-620 colon)?
Answer: < 10 nM

Question: What about the TGI (SW-620 colon) of the same molecule?
Answer: > 100000 nM

Question: And the GI50 (HL-60(TB) leukemia)?
Answer: < 10 nM

Question: What about the TGI (HL-60(TB) leukemia) of the same molecule?
Answer: 15900 nM

Question: What about the GI50 (UACC-257 melanoma) of the same molecule?
Answer: 12.2 nM

Question: And the TGI (UACC-257 melanoma)?
Answer: 1310 nM

Question: And the GI50 (NCI-H226 lung)?
Answer: < 10 nM

Question: And the GI50 (PC-3 prostate)?
Answer: 17.1 nM

Question: And the TGI (PC-3 prostate)?
Answer: > 100000 nM

Question: What about the GI50 (RPMI-8226 leukemia) of the same molecule?
Answer: < 10 nM

Question: What about the TGI (RPMI-8226 leukemia) of the same molecule?
Answer: 10400 nM

Question: What about the GI50 (ACHN renal) of the same molecule?
Answer: < 10 nM

Question: What about the TGI (ACHN renal) of the same molecule?
Answer: 1090 nM

Question: What about the GI50 (HOP-62 NSCLC) of the same molecule?
Answer: < 10 nM

Question: And the GI50 (DU-145 prostate)?
Answer: < 10 nM

Question: What about the TGI (DU-145 prostate) of the same molecule?
Answer: 59900 nM

Question: What about the GI50 (SF-539 CNS) of the same molecule?
Answer: < 10 nM

Question: And the TGI (SF-539 CNS)?
Answer: 20.6 nM

Question: What about the GI50 (K-562 leukemia) of the same molecule?
Answer: 11.1 nM

Question: What about the TGI (K-562 leukemia) of the same molecule?
Answer: 20800 nM

Question: What about the GI50 (HS 578T breast) of the same molecule?
Answer: 17100 nM

Question: What about the TGI (HS 578T breast) of the same molecule?
Answer: > 100000 nM
